Assay results reported in patent US8106055B2, “Substituted amide compounds” (Gruenenthal GmbH, priority 2007, dated 2012).

Columns and labels:
human μ opiate receptor = biological target: T1, human μ opiate receptor (Homo sapiens, UniProt P35372); experiment: Affinity for the human μ opiate receptor ([3H]-naloxone displacement, CHO-K1 receptor membrane preparation, SPA); format: binding; settings: test concentration of 1 μM; read-out: μ (binding on the μ opioid receptor, % inhibition)
T1 construct: purchased PerkinElmer Life Sciences, Zaventem, Belgium RB-HOM; host or cells: CHO-K1 cells (membrane preparation)
Outline: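 Scintillation proximity binding on human μ receptor membranes from CHO-K1 cells used 1 nmol/l [3H]-naloxone over 90 min at room temperature in 50 mmol/l Tris-HCl, 0.06% BSA. Percent inhibition was recorded at 1 μM.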

[1] = biological target: T2, serotonin (5-HT) reuptake (Rattus norvegicus, UniProt P31652); experiment: Inhibition of serotonin (5HT) reuptake in synaptosomes from rat brain; format: biochemical; settings: test concentration of 10 μM; read-out: 5-HT (inhibition of reuptake of serotonin, % inhibition)
T2 construct: synaptosomes are freshly isolated from areas of the rat brain; from tissue; host or cells: rat brain synaptosomes (P2 fraction)
Outline: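 Freshly isolated rat brain synaptosomes (P2 fraction) used for 5-HT reuptake. Test compound at 10 μM, activity given as % inhibition.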

T2 sequence (P31652 whole entry): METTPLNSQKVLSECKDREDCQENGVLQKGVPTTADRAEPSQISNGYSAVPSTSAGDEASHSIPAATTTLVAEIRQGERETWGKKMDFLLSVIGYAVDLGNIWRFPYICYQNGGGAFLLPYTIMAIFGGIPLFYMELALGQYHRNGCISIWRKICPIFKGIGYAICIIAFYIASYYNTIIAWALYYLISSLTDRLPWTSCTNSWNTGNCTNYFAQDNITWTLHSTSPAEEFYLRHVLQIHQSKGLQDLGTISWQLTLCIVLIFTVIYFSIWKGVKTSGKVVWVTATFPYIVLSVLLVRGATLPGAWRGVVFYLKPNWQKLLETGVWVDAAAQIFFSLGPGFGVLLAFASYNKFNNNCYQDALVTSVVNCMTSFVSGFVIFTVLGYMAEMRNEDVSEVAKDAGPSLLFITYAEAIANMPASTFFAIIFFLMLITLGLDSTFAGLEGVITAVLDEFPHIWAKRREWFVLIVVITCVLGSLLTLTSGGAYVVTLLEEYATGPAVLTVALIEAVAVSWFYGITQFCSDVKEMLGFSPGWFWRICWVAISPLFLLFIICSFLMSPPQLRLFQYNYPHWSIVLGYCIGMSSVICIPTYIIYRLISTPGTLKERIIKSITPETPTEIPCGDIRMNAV
T1 sequence (P35372 whole entry): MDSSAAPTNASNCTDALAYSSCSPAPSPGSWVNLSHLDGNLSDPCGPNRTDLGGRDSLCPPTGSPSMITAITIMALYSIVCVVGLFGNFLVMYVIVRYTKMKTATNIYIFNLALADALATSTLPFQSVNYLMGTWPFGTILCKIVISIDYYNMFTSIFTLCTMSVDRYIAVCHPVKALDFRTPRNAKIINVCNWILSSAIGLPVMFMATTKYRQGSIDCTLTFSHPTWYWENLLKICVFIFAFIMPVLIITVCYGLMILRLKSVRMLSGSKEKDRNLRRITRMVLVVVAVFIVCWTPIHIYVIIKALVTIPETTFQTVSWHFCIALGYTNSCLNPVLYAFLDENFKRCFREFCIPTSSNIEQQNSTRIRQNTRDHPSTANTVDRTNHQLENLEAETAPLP

Row | Structure (SMILES) | inhibition at 1 µM (human μ opiate receptor) | inhibition at 10 µM [1]
1 | CCN(CCOCC(=O)NC1CCC(C(c2cccs2)N(C)C)CC1)S(=O)(=O)c1c(C)cc(OC)c(C)c1C (centres unmarked) [Example 59, N-(4-((dimethylamino)(thiophen-2-yl)methyl)cyclohexyl)-2-(2-(N-ethyl-4-methoxy-2,3,6-trimethylphenylsulfonamido)ethoxy)acetamide] | 95% | 92%
2 | COc1cc(C)c(S(=O)(=O)N2CCCC(OCC(=O)NCC3CCC(C(c4cccs4)N(C)C)CC3)C2)c(C)c1C (centres unmarked) [Example 60, N-((4-((dimethylamino)(thiophen-2-yl)methyl)cyclohexyl)methyl)-2-(1-(4-methoxy-2,3,6-trimethylphenylsulfonyl)piperidin-3-yloxy)acetamide] | 95% | 92%
3 | COc1cc(C)c(S(=O)(=O)N2CCN(CCOCC(=O)NCC3CCC(C(c4ccccc4)N(C)C)CC3)CC2)c(C)c1C (centres unmarked) [Example 61, N-((4-((dimethylamino)(phenyl)methyl)cyclohexyl)methyl)-2-(2-(4-(4-methoxy-2,3,6-trimethylphenylsulfonyl)piperazin-1-yl)ethoxy)acetamide] | 95% | 95%
4 | COc1ccc(S(=O)(=O)N2CCCCC2CCOCC(=O)NC2CCC(C(c3cccc(F)c3)N(C)C)CC2)cc1 (centres unmarked) [Example 62, N-(4-((dimethylamino)(3-fluorophenyl)methyl)cyclohexyl)-2-(2-(1-(4-methoxyphenylsulfonyl)piperidin-2-yl)ethoxy)acetamide] | 95% | 96%
5 | Cc1cc(C)c(S(=O)(=O)N2CCC(OCC(=O)NC3CCC(C(c4ccccc4)N(C)C)CC3)C2)c(C)c1 (centres unmarked) [Example 64, N-(4-((dimethylamino)(phenyl)methyl)cyclohexyl)-2-(1-(mesitylsulfonyl)pyrrolidin-3-yloxy)acetamide] | 94% | 83%
6 | CN(C)C(c1cccs1)C1CCC(CCNC(=O)COCCN(C)S(=O)(=O)c2ccc(OC(F)(F)F)cc2)CC1 (centres unmarked) [Example 65, N-(2-(4-((dimethylamino)(thiophen-2-yl)methyl)cyclohexyl)ethyl)-2-(2-(N-methyl-4-(trifluoromethoxy)phenylsulfonamido)ethoxy)acetamide] | 96% | 95%
7 | CN(C)C(c1cccs1)C1CCC(CCNC(=O)COC2CCN(S(=O)(=O)c3ccc(Cl)cc3)C2)CC1 (centres unmarked) [Example 66, 2-(1-(4-chlorophenylsulfonyl)pyrrolidin-3-yloxy)-N-(2-(4-((dimethylamino)(thiophen-2-yl)methyl)cyclohexyl)ethyl)acetamide] | 93% | 85%
8 | CN(C)C(c1ccccc1)C1CCC(CNC(=O)COC2CCN(S(=O)(=O)c3ccc(Cl)cc3Cl)C2)CC1 (centres unmarked) [Example 67, 2-(1-(2,4-dichlorophenylsulfonyl)pyrrolidin-3-yloxy)-N-((4-((dimethylamino)(phenyl)methyl)cyclohexyl)methyl)acetamide] | 96% | 87%
9 | Cc1ccc(S(=O)(=O)N2CCC(OCC(=O)NCC3CCC(C(c4cccs4)N(C)C)CC3)C2)cc1 (centres unmarked) [Example 68, N-((4-((dimethylamino)(thiophen-2-yl)methyl)cyclohexyl)methyl)-2-(1-tosylpyrrolidin-3-yloxy)acetamide] | 93% | 82%
10 | COc1cc(C)c(S(=O)(=O)N(C)CCOCC(=O)NCC2CCC(C(c3cccs3)N(C)C)CC2)c(C)c1 (centres unmarked) [Example 69, N-((4-((dimethylamino)(thiophen-2-yl)methyl)cyclohexyl)methyl)-2-(2-(4-methoxy-N,2,6-trimethylphenylsulfonamido)ethoxy)acetamide] | 96% | 86%
11 | CN(C)C(c1cccc(F)c1)C1CCC(CNC(=O)COCCN(C)S(=O)(=O)c2ccc(Cl)cc2Cl)CC1 (centres unmarked) [Example 70, 2-(2-(2,4-dichloro-N-methylphenylsulfonamido)ethoxy)-N-((4-((dimethylamino)(3-fluorophenyl)methyl)cyclohexyl)methyl)acetamide] | 91% | 86%
12 | Cc1cc(C)c(S(=O)(=O)N2CCC(OCC(=O)NCCC3CCC(C(c4cccs4)N(C)C)CC3)C2)c(C)c1 (centres unmarked) [Example 71, N-(2-(4-((dimethylamino)(thiophen-2-yl)methyl)cyclohexyl)ethyl)-2-(1-(mesitylsulfonyl)pyrrolidin-3-yloxy)acetamide] | 94% | 79%
13 | CN(C)C(c1cccc(F)c1)C1CCC(CNC(=O)COCCN(C)S(=O)(=O)c2c(Cl)cccc2Cl)CC1 (centres unmarked) [Example 72, 2-(2-(2,6-dichloro-N-methylphenylsulfonamido)ethoxy)-N-((4-((dimethylamino)(3-fluorophenyl)methyl)cyclohexyl)methyl)acetamide] | 92% | 84%
14 | COc1ccc(S(=O)(=O)N(C)CCOCC(=O)NC2CCC(C(c3cccs3)N(C)C)CC2)cc1 (centres unmarked) [Example 73, N-(4-((dimethylamino)(thiophen-2-yl)methyl)cyclohexyl)-2-(2-(4-methoxy-N-methylphenylsulfonamido)ethoxy)acetamide] | 90% | 77%
15 | COc1cc(C)c(S(=O)(=O)N2CCC(OCC(=O)NCCC3CCC(C(c4cccs4)N(C)C)CC3)C2)c(C)c1C (centres unmarked) [Example 74, N-(2-(4-((dimethylamino)(thiophen-2-yl)methyl)cyclohexyl)ethyl)-2-(1-(4-methoxy-2,3,6-trimethylphenylsulfonyl)pyrrolidin-3-yloxy)acetamide] | 90% | 98%
16 | COc1cc(C)c(S(=O)(=O)N2CCC(CCOCC(=O)NCCC3CCC(C(c4cccs4)N(C)C)CC3)CC2)c(C)c1C (centres unmarked) [Example 75, N-(2-(4-((dimethylamino)(thiophen-2-yl)methyl)cyclohexyl)ethyl)-2-(2-(1-(4-methoxy-2,3,6-trimethylphenylsulfonyl)piperidin-4-yl)ethoxy)acetamide] | 92% | 96%
17 | COc1cc(C)c(S(=O)(=O)N2CCN(CCOCC(=O)NC3CCC(C(c4cccc(F)c4)N(C)C)CC3)CC2)c(C)c1C (centres unmarked) [Example 76, N-(4-((dimethylamino)(3-fluorophenyl)methyl)cyclohexyl)-2-(2-(4-(4-methoxy-2,3,6-trimethylphenylsulfonyl)piperazin-1-yl)ethoxy)acetamide] | 93% | 96%
18 | COc1ccc(S(=O)(=O)N2CCCC2COCC(=O)NCCC2CCC(C(c3cccs3)N(C)C)CC2)cc1 (centres unmarked) [Example 77, N-(2-(4-((dimethylamino)(thiophen-2-yl)methyl)cyclohexyl)ethyl)-2-((1-(4-methoxyphenylsulfonyl)pyrrolidin-2-yl)methoxy)acetamide] | 96% | 98%
19 | CN(C)C(c1ccccc1)C1CCC(CNC(=O)COC2CCCCC2N(C)S(=O)(=O)c2ccc(Cl)c(Cl)c2)CC1 (centres unmarked) [Example 78, 2-(2-(3,4-dichloro-N-methylphenylsulfonamido)cyclohexyloxy)-N-((4-((dimethylamino)(phenyl)methyl)cyclohexyl)methyl)acetamide] | 95% | 86%
20 | COc1cc(C)c(S(=O)(=O)N(C)CCOCC(=O)NC2CCC(C(c3ccccc3)N(C)C)CC2)c(C)c1C (centres unmarked) [Example 80, N-(4-((dimethylamino) (phenyl)methyl)cyclohexyl)-2-(2-(4-methoxy-N,2,3,6-tetramethylphenylsulfonamido)ethoxy)acetamide] | 93% | 84%
21 | CN(C)C(c1ccccc1)C1CCC(CNC(=O)COC2CCN(S(=O)(=O)c3ccc(Cl)cc3)C2)CC1 (centres unmarked) [Example 81, 2-(1-(4-chlorophenylsulfonyl)pyrrolidin-3-yloxy)-N-((4-((dimethylamino)(phenyl)methyl)cyclohexyl)methyl)acetamide] | 91% | 91%
22 | Cc1ccc(S(=O)(=O)N(C)CCOCC(=O)NCCC2CCC(C(c3cccs3)N(C)C)CC2)cc1 (centres unmarked) [Example 82, N-(2-(4-((dimethylamino)(thiophen-2-yl)methyl)cyclohexyl)ethyl)-2-(2-(N,4-dimethylphenylsulfonamido)ethoxy)acetamide] | 95% | 85%
23 | CN(C)C(c1cccs1)C1CCC(NC(=O)COCCN(C)S(=O)(=O)c2ccc(Cl)cc2)CC1 (centres unmarked) [Example 83, 2-(2-(4-chloro-N-methylphenylsulfonamido)ethoxy)-N-(4-((dimethylamino) (thiophen-2-yl)methyl)cyclohexyl)acetamide] | 94% | 89%
24 | COc1cc(C)c(S(=O)(=O)N(C)CCOCC(=O)NCCC2CCC(C(c3cccs3)N(C)C)CC2)c(C)c1 (centres unmarked) [Example 84, N-(2-(4-((dimethylamino)(thiophen-2-yl)methyl)cyclohexyl)ethyl)-2-(2-(4-methoxy-N,2,6-trimethylphenylsulfonamido)ethoxy)acetamide] | 95% | 92%
25 | CN(C)C(c1cccs1)C1CCC(CCNC(=O)COCCN(C)S(=O)(=O)c2ccc(F)cc2)CC1 (centres unmarked) [Example 85, N-(2-(4-((dimethylamino)(thiophen-2-yl)methyl)cyclohexyl)ethyl)-2-(2-(4-fluoro-N-methylphenylsulfonamido)ethoxy)acetamide] | 92% | 98%
